Literature values, collected in US20090011059A1, “Ginger Extract For Inhibiting Human Drug Transporters” (priority 2005, published 2009).

Settings: not given

oral availability [%]	Compound
8	CC(=O)O[C@@]12CO[C@@H]1C[C@H](O)[C@@]1(C)C(=O)[C@H](O)C3=C(C)[C@@H](OC(=O)[C@H](O)[C@@H](NC(=O)OC(C)(C)C)c4ccccc4)C[C@@](O)([C@@H](OC(=O)c4ccccc4)[C@H]21)C3(C)C [Docetaxel]
4	CC[C@H](C)C(=O)O[C@H]1C[C@@H](C)C=C2C=C[C@H](C)[C@H](CC[C@@H]3C[C@@H](O)CC(=O)O3)[C@H]21 [Lovastatin]

The remaining lines, values behind:

Compound	oral availability [%]
CO[C@H]1C[C@@H]2CC[C@@H](C)[C@@](O)(O2)C(=O)C(=O)N2CCCC[C@H]2C(=O)O[C@H]([C@H](C)C[C@@H]2CC[C@@H](O)[C@H](OC)C2)CC(=O)[C@H](C)/C=C(\C)[C@@H](O)[C@@H](OC)C(=O)[C@H](C)C[C@H](C)/C=C/C=C/C=C/1C [Sirolimus]	15
C=CC[C@@H]1/C=C(\C)C[C@H](C)C[C@H](OC)[C@H]2O[C@@](O)(C(=O)C(=O)N3CCCC[C@H]3C(=O)O[C@H](/C(C)=C/[C@@H]3CC[C@@H](O)[C@H](OC)C3)[C@H](C)[C@@H](O)CC1=O)[C@H](C)C[C@@H]2OC [Tacrolimus]	16
CC[C@@]1(O)C(=O)OCc2c1cc1n(c2=O)Cc2cc3c(CN(C)C)c(O)ccc3nc2-1 [Topotecan]	42

Settings: in vivo

Compound	increase of the plasma exposure of cyclosporin A
vitamin E	roughly two-fold
